BindingDB's records for doi:10.1016/s0960-894x(01)00026-9 (University of Minnesota, 2001)

Experiments:
[1] = Inhibitory concentration against Protein phosphatase 2A (25 nM) isolated from bovine myocardial tissue
[2] = target: Serine/threonine-protein phosphatase PP1 catalytic subunit (Oryctolagus cuniculus); assay: Inhibitory concentration against Protein phosphatase 1(10 nM) isolated from rabbit muscle

Row | SMILES | IC50 [1] [µM] | IC50 [2] [µM]
1 | C=C1[C@@H](O)[C@@H]2O[C@]3(CCCO3)CC[C@H]2O[C@@H]1[C@@H](O)C[C@H](C)[C@H]1O[C@@]2(CCCCO2)CC[C@H]1C [okadaic acid analogue] | > 1000 | –
2 | C=C1[C@@H](O)[C@@H]2O[C@]3(CC[C@H](/C=C/[C@@H](C)[C@@H]4CC(C)=C[C@@]5(O[C@H](C[C@@](C)(O)C(=O)O)CC[C@H]5O)O4)O3)CC[C@H]2O[C@@H]1CO [okadaic acid analogue] | 0.304 | 94
3 | C=C1[C@@H](O)[C@@H]2O[C@]3(CC[C@H](/C=C/[C@@H](C)[C@@H]4CC(C)=C[C@@]5(O[C@H](C[C@@](C)(O)C(=O)O)CC[C@H]5O)O4)O3)CC[C@H]2O[C@@H]1[C@@H](O)C[C@H](C)[C@H]1O[C@@]2(CCCCO2)CC[C@H]1C [okadaic acid analogue] | 0.007 | –
